Values of other authors in patent US12453719B2, “Treatment method using a complex of angiotensin II receptor antagonist metabolite and NEP inhibitor” (Shenzhen Salubris Pharmaceuticals Co., Ltd., priority 2019, dated 2025).
Read-outs that look alike come from different tables or passages of the source.

Tests used:
[1] = arithmetic mean
[2] = single oral administration of Losartan

## CCCCc1nc(Cl)c(CO)n1Cc1ccc(-c2ccccc2-c2nn[nH]n2)cc1 [Losartan]
[1]; single administration of Losartan 40 mg (n = 15)
  AUC Losartan: 391.5 ng·h/mL
[1]; single administration of Losartan 50 mg (n = 12)
  AUC Losartan: 395.0 ng·h/mL
[1]; single administration of Losartan 80 mg (n = 8)
  AUC Losartan: 932.7 ng·h/mL
[1]; single administration of Losartan 120 mg (n = 8)
  AUC Losartan: 1277.7 ng·h/mL
[1]; single administration of Losartan 150 mg (n = 8)
  AUC Losartan: 1678.0 ng·h/mL
[1]; single administration of Losartan 200 mg (n = 15)
  AUC Losartan: 2371.6 ng·h/mL
[1]; single administration of Losartan 250 mg (n = 7)
  AUC Losartan: 2567.3 ng·h/mL
[1]; single administration of Losartan 300 mg (n = 7)
  AUC Losartan: 3492.4 ng·h/mL
[2]
  in vivo EXP3174 exposure (AUC) relative to the prototype drug: about four
